These results are taken from US5840684A, “Glycopeptide antibiotic derivatives” (Eli Lilly and Company, priority 1995, dated 1998).

In brackets after ≈: the same amount, converted by molar mass.

By MIC is commonly meant the smallest concentration in the dilution series that meets the test's criterion for growth inhibition. Higher therefore signals a need for much substance.

Experiment [1] has as its system Entercoccus faecium 180-1. Description: broth micro-dilution MIC. It counts as cell-based. The method, then:
(§1) The MIC's were determined using a standard broth micro-dilution assay.
Background: Broth dilution looks for growth in wells or tubes with falling amounts of substance.

Another experiment concerns Entercoccus faecium 276. Description: broth micro-dilution MIC. It is filed as cell-based. As for the experimental part: as §1
The subject of experiment [2] is Staphylococcus aureus SA1199. Description: broth micro-dilution MIC. It is filed as cell-based. The method, then:
as §1

The subject of experiment [3] is Staphylococcus aureus SA1199A. Description: broth micro-dilution MIC. It counts as cell-based. As for the experimental part: as §1
For experiment [4], the system named is Streptococcus pyogenes C203. As to the kind of experiment: broth micro-dilution MIC. It counts as cell-based. As for the experimental part: as §1
Experiment [5] deals with Staphylococcus aureus X778. Description: broth micro-dilution MIC. It is filed as cell-based. The method, then:
as §1

The test system of experiment [6] is Staphylococcus aureus X400. Description: broth micro-dilution MIC. It counts as cell-based. As for the experimental part:
as §1

Experiment [7] relates to Staphylococcus aureus 446. Description: broth micro-dilution MIC. It counts as cell-based. The method, then: as §1
Experiment [8] has as its system Staphylococcus aureus 447. Description: broth micro-dilution MIC. It counts as cell-based. As for the experimental part:
as §1

For experiment [9], the system named is Staphylococcus aureus 491. Description: broth micro-dilution MIC. It is filed as cell-based. The method, then:
as §1

For experiment [10], the system named is Enterococcus gallinarum 245. Description: broth micro-dilution MIC. It is filed as cell-based. The note with it: Enterococcus gallinarum 245. As for the experimental part:
(§2) The formula I compounds have in vitro and in vivo activity against Gram-positive pathogenic bacteria. The MIC's were determined using a standard broth micro-dilution assay.

In the next experiment the test system is Entercoccus faecium 2041. As to the kind of experiment: broth micro-dilution MIC. It is filed as cell-based. Conditions: Entercoccus faecium 2041. The method, then:
as §2

Experiment [11] deals with Staphylococcus epidermidis 270. Description: broth micro-dilution MIC. It counts as cell-based. The method, then: as §2
Experiment [12] has as its system Staphylococcus haemolyticus 105. Description: broth micro-dilution MIC. It is filed as cell-based. As for the experimental part:
as §2

The next experiment relates to Entercoccus faecium 180. Description: broth micro-dilution MIC. It counts as cell-based. The note with it: Entercoccus faecium 180. As for the experimental part:
as §2

Experiment [13] concerns Streptococcus pneumoniae P1. Description: broth micro-dilution MIC. It counts as cell-based. The method, then:
as §2

For experiment [14], the system named is Staphylococcus haemolyticus 415. As to the kind of experiment: broth micro-dilution MIC. It is filed as cell-based. As for the experimental part: as §2
Experiment [15] has as its system vancomycin-resistant enterococci. Description: broth micro-dilution, mean geometric MIC. It is filed as cell-based, Enterococcus faecium and Enterococcus faecalis. Conditions: enterococci, 24-hour incubation.
Another experiment has as its system Streptococcus pyogenes. As to the kind of experiment: mouse protection, experimentally-induced infection. The note with it: mice infected with Streptococcus pyogenes, two doses. It is filed as in vivo.
A further experiment relates to Streptococcus pneumoniae. Description: mouse protection, experimentally-induced infection. It is filed as in vivo. The note with it: mice infected with Streptococcus pneumoniae, two doses.
Experiment [16] has as its system Staphylococcus aureus S13E. It counts as cell-based. As for the experimental part: as §1
For experiment [17], the system named is Staphylococcus aureus 489. Description: broth micro-dilution MIC. It is filed as cell-based. As for the experimental part:
as §1

The subject of experiment [18] is vancomycin-susceptible enterococci. As to the kind of experiment: broth micro-dilution, mean geometric MIC. It is filed as cell-based, Enterococcus faecium and Enterococcus faecalis. The note with it: enterococci, 24-hour incubation.
Experiment [19] deals with Staphylococcus aureus SA1199B. It is filed as cell-based. As for the experimental part: as §1

For `CCCCCCCCCOc1ccc(CNC2(C)CC(OC3C(Oc4c5cc6cc4Oc4ccc(cc4Cl)C(OC4CC(C)(N)C(O)C(C)O4)C4NC(=O)C(NC(=O)C6NC(=O)C(CC(N)=O)NC(=O)C(NC(=O)C(CC(C)C)NC)C(O)c6ccc(c(Cl)c6)O5)c5ccc(O)c(c5)-c5c(O)cc(O)cc5C(C(=O)O)NC4=O)OC(CO)C(O)C3O)OC(C)C2O)cc1` (stereo not shown) [Compound 8], the MIC in experiment [1] is 0.5 µg/mL (≈ 0.274 µM); against Entercoccus faecium 276 it was 4 µg/mL (≈ 2.19 µM); in [2], 2 µg/mL (≈ 1.1 µM); in [3], 2 µg/mL (≈ 1.1 µM); in [4], no more than 0.06 µg/mL; in experiment [5], 8 µg/mL (≈ 4.38 µM). Further, the MIC came out at 8 µg/mL (≈ 4.38 µM) in experiment [6]; 2 µg/mL (≈ 1.1 µM) in [7]; 8 µg/mL (≈ 4.38 µM) in experiment [8]; 4 µg/mL (≈ 2.19 µM) in experiment [9]; 8 µg/mL (≈ 4.38 µM) in [10]; 4 µg/mL (≈ 2.19 µM) in the experiment with Entercoccus faecium 2041. Further, the MIC is 4 µg/mL (≈ 2.19 µM) in experiment [11]; 8 µg/mL (≈ 4.38 µM) in [12]; 1 µg/mL (≈ 0.548 µM) against Entercoccus faecium 180; no more than 0.06 µg/mL in experiment [13]; 8 µg/mL (≈ 4.38 µM) in [14]; 8 µg/mL (≈ 4.38 µM) in experiment [16]. In addition, the “mean geometric MIC, Vancomycin Resistant Strains” value in experiment [15] is 1.0 µg/mL. Further, the figures for the ED50 in the experiment with Streptococcus pyogenes and in the experiment with Streptococcus pneumoniae were greater than 0.5 mg/kg/2 and 0.273 mg/kg/2, respectively.
`CNC(CC(C)C)C(=O)NC1C(=O)NC(CC(N)=O)C(=O)NC2C(=O)NC3C(=O)NC(C(=O)NC(C(=O)O)c4cc(O)cc(O)c4-c4cc3ccc4O)C(OC3CC(C)(N)C(O)C(C)O3)c3ccc(c(Cl)c3)Oc3cc2cc(c3OC2OC(CO)C(O)C(O)C2OC2CC(C)(NCc3ccc(Oc4cccc(Cl)c4)c([N+](=O)[O-])c3)C(O)C(C)O2)Oc2ccc(cc2Cl)C1O` (stereo not shown) [Compound 87]: the MIC in experiment [1] is no more than 0.06 µg/mL; against Entercoccus faecium 276 it was no more than 0.06 µg/mL; in [2] it was 2 µg/mL (≈ 1.08 µM); in experiment [17], 0.5 µg/mL (≈ 0.27 µM); in experiment [3], no more than 0.06 µg/mL; in [4], no more than 0.06 µg/mL. Moreover, the MIC stood at 2 µg/mL (≈ 1.08 µM) in experiment [5]; 1 µg/mL (≈ 0.539 µM) in [6]; 1 µg/mL (≈ 0.539 µM) in experiment [7]; 0.5 µg/mL (≈ 0.27 µM) in [8]; 2 µg/mL (≈ 1.08 µM) in experiment [9]; 2 µg/mL (≈ 1.08 µM) in [10]. Further, the MIC is no more than 0.06 µg/mL against Entercoccus faecium 2041; 1 µg/mL (≈ 0.539 µM) in experiment [11]; 1 µg/mL (≈ 0.539 µM) in experiment [12]; no more than 0.06 µg/mL against Entercoccus faecium 180; no more than 0.06 µg/mL in experiment [13]; 2 µg/mL (≈ 1.08 µM) in experiment [14]. For the same compound, the MIC in experiment [16] and in experiment [19] was 0.5 µg/mL (≈ 0.27 µM) each time. Moreover, in experiment [15], the “mean geometric MIC, Vancomycin Resistant Strains” value came to 0.71 µg/mL. Moreover, the ED50 worked out at 0.054 mg/kg/2 in the experiment on Streptococcus pyogenes and 0.027 mg/kg/2 in the experiment with Streptococcus pneumoniae. In addition, the “mean geometric MIC, Vancomycin Sensitive Strains” value in experiment [18] came out at 0.047 µg/mL.
In the case of `CN[C@H](CC(C)C)C(=O)N[C@H]1C(=O)N[C@@H](CC(N)=O)C(=O)N[C@H]2C(=O)N[C@H]3C(=O)N[C@H](C(=O)N[C@H](C(=O)O)c4cc(O)cc(O)c4-c4cc3ccc4O)[C@H](O[C@H]3C[C@](C)(N)[C@@H](O)[C@H](C)O3)c3ccc(c(Cl)c3)Oc3cc2cc(c3O[C@@H]2O[C@H](CO)[C@@H](O)[C@H](O)[C@H]2O[C@H]2C[C@](C)(NCc3ccc(Oc4ccc(Cl)cc4)c([N+](=O)[O-])c3)[C@@H](O)[C@H](C)O2)Oc2ccc(cc2Cl)[C@H]1O` [Compound 94], the MIC is no more than 0.06 µg/mL in experiment [1]; 0.125 µg/mL (≈ 0.0674 µM) against Entercoccus faecium 276; 0.5 µg/mL (≈ 0.27 µM) in [2]; 2 µg/mL (≈ 1.08 µM) in experiment [17]; no more than 0.06 µg/mL in experiment [3]; no more than 0.06 µg/mL in experiment [4]. Further, the MIC came out at 0.5 µg/mL (≈ 0.27 µM) in experiment [5]; 1 µg/mL (≈ 0.539 µM) in experiment [6]; 1 µg/mL (≈ 0.539 µM) in experiment [7]; 0.5 µg/mL (≈ 0.27 µM) in experiment [8]; 0.5 µg/mL (≈ 0.27 µM) in experiment [9]; 2 µg/mL (≈ 1.08 µM) in experiment [10]. The MIC against Entercoccus faecium 2041 was no more than 0.06 µg/mL; in [11] it was 1 µg/mL (≈ 0.539 µM); in experiment [12] it was 2 µg/mL (≈ 1.08 µM); in experiment [13], no more than 0.06 µg/mL; in [14], 2 µg/mL (≈ 1.08 µM); in [16] it was 2 µg/mL (≈ 1.08 µM). In experiment [19], this compound gave an MIC of 2 µg/mL (≈ 1.08 µM). Further, the “mean geometric MIC, Vancomycin Resistant Strains” value in experiment [15] was found to be 0.50 µg/mL. The ED50 in the experiment on Streptococcus pyogenes amounted to 0.16 mg/kg/2; in the experiment with Streptococcus pneumoniae, 0.049 mg/kg/2. In addition, the “mean geometric MIC, Vancomycin Sensitive Strains” value in experiment [18] was 0.041 µg/mL.
Turning to `CN[C@H](CC(C)C)C(=O)N[C@H]1C(=O)N[C@@H](CC(N)=O)C(=O)N[C@H]2C(=O)N[C@H]3C(=O)N[C@H](C(=O)N[C@H](C(=O)O)c4cc(O)cc(O)c4-c4cc3ccc4O)[C@H](O[C@H]3C[C@](C)(N)[C@@H](O)[C@H](C)O3)c3ccc(c(Cl)c3)Oc3cc2cc(c3O[C@@H]2O[C@H](CO)[C@@H](O)[C@H](O)[C@H]2O[C@H]2C[C@](C)(NCc3ccc(-c4ccc(C)cc4)cc3)[C@@H](O)[C@H](C)O2)Oc2ccc(cc2Cl)[C@H]1O` [Compound 97], the minimum inhibitory concentration (MIC) in experiment [1] was no more than 0.06 µg/mL; with Entercoccus faecium 276, no more than 0.06 µg/mL; in experiment [2], 2 µg/mL (≈ 1.13 µM); in experiment [3], no more than 0.06 µg/mL; in [4], no more than 0.06 µg/mL; in experiment [6], 1 µg/mL (≈ 0.564 µM). The MIC in experiment [7] was 1 µg/mL (≈ 0.564 µM); in [8], 1 µg/mL (≈ 0.564 µM); in experiment [9], 0.5 µg/mL (≈ 0.282 µM); in [10], 2 µg/mL (≈ 1.13 µM); in the experiment on Entercoccus faecium 2041, no more than 0.06 µg/mL; in experiment [11], 1 µg/mL (≈ 0.564 µM). Moreover, the MIC in experiment [12] is 2 µg/mL (≈ 1.13 µM); in experiment [13], no more than 0.06 µg/mL; in experiment [14], 2 µg/mL (≈ 1.13 µM); in [19], 1 µg/mL (≈ 0.564 µM). In addition, the “mean geometric MIC, Vancomycin Resistant Strains” value in experiment [15] worked out at 0.71 µg/mL. Also, the results for the ED50 in the experiment with Streptococcus pyogenes and in the experiment on Streptococcus pneumoniae were 0.066 mg/kg/2 and 0.038 mg/kg/2, respectively. Also, in [18], the “mean geometric MIC, Vancomycin Sensitive Strains” value turned out to be 0.054 µg/mL.
Regarding `CNC(CC(C)C)C(=O)NC1C(=O)NC(CC(N)=O)C(=O)NC2C(=O)NC3C(=O)NC(C(=O)NC(C(=O)O)c4cc(O)cc(O)c4-c4cc3ccc4O)C(OC3CC(C)(N)C(O)C(C)O3)c3ccc(c(Cl)c3)Oc3cc2cc(c3OC2OC(CO)C(O)C(O)C2OC2CC(C)(NCc3ccc(OCCCc4ccccc4)cc3)C(O)C(C)O2)Oc2ccc(cc2Cl)C1O` (stereo not shown) [Compound 223], the MIC in experiment [1] is no more than 0.06 µg/mL; in [2], 2 µg/mL (≈ 1.1 µM); in experiment [17] it was 1 µg/mL (≈ 0.55 µM); in experiment [3], no more than 0.06 µg/mL; in experiment [4], no more than 0.06 µg/mL; in experiment [5], 1 µg/mL (≈ 0.55 µM). The MIC in [6] was 1 µg/mL (≈ 0.55 µM); in experiment [8], 0.5 µg/mL (≈ 0.275 µM); in experiment [10], 1 µg/mL (≈ 0.55 µM); with Entercoccus faecium 2041, no more than 0.06 µg/mL; in [11], 0.5 µg/mL (≈ 0.275 µM); in [12], 1 µg/mL (≈ 0.55 µM). Further, the MIC in the experiment with Entercoccus faecium 180 was no more than 0.06 µg/mL; in experiment [13], no more than 0.06 µg/mL; in experiment [14], 1 µg/mL (≈ 0.55 µM); in [16] it was 0.5 µg/mL (≈ 0.275 µM); in experiment [19], 1 µg/mL (≈ 0.55 µM). Also, in experiment [15], the “mean geometric MIC, Vancomycin Resistant Strains” value is 0.79 µg/mL. Besides, the ED50 in the experiment with Streptococcus pyogenes and with Streptococcus pneumoniae was less than 0.031 mg/kg/2 throughout. In experiment [18], the “mean geometric MIC, Vancomycin Sensitive Strains” value was 0.055 µg/mL.
